Measured values from paper PMC10218303, “Novel Polymyxin-Inspired Peptidomimetics Targeting the SARS-CoV-2 Spike:hACE2 Interface” (International Journal of Molecular Sciences, 2023).
Where two headings read alike, the source gives them in different places. Bridge positions count the residues as written; N and C are the ends. Square brackets hold non-standard residues; d marks the D form. Peptide text beside a SMILES is read from it. Dab = NCC[C@H](N)C(=O)O

Columns and labels:
[1] = tested on: SARS-CoV-2 (strain Delta); test: microbe, parasite or virus in culture; conditions: Severe acute respiratory syndrome coronavirus 2, 120 h, read-out: IC50 Delta
[2] = in vitro; conditions: human
[3] = in vitro; conditions: human; remark: listed apart in the source
[4] = tested on: SARS-CoV-2 (strain 20A.EU2); conditions: strain 20A.EU2, 2 h
[5] = tested on: SARS-CoV-2 (strain Delta); conditions: for IC50: strain Delta, 2 h
[6] = tested on: SARS-CoV-2 (strain 20A.EU2); test: microbe, parasite or virus in culture; conditions: Severe acute respiratory syndrome coronavirus 2, 96 h, read-out: IC50 20A.EU2

| SMILES | IC50 [1] [µM] | CC50 [2] [µM] | CC50 [3] [µM] | IC50 [4] [µM] | IC50 [5] [µM] | antiviral effect, in words [5] | IC50 [6] [µM] |
| --- | --- | --- | --- | --- | --- | --- | --- |
| N#C[C@@]1(c2ccc3c(N)ncnn23)O[C@H](CO)[C@@H](O)[C@H]1O [GS-441524, reference compound] | 2.3 | > 40 | – | – | – | – | – |
| CC(=O)N[C@@H](CCC(=O)O)C(=O)N[C@H](C(=O)N[C@@H](CCN)C(=O)N[C@H]1CCNC(=O)[C@H](Cn2cc(CC(=O)O)nn2)NC(=O)[C@H](CCN)NC(=O)[C@H](CCN)NC(=O)[C@H](Cc2ccc(O)cc2)NC(=O)[C@@H](Cc2ccccc2)NC(=O)[C@H](Cc2ccc(O)cc2)NC1=O)[C@@H](C)O [monomer 6] | – | > 50 | > 50 | > 50 | > 50 | – | – |
| CC(C)C[C@@H]1NC(=O)[C@@H](Cc2ccccc2)NC(=O)[C@H](Cc2c[nH]c3ccccc23)NC(=O)[C@@H](NC(=O)[C@@H](N)CCN)CCNC(=O)[C@H]([C@@H](C)O)NC(=O)[C@H](CCN)NC(=O)[C@H](Cc2c[nH]c3ccccc23)NC1=O [monomer 8] (H-[Dab][Dab]W[dF]LW[Dab]T; lactam 2-C) | – | > 50 | > 50 | > 50 | > 50 | a hint of antiviral effect | – |
| CC(=O)N[C@@H](CCC(=O)O)C(=O)N[C@H](C(=O)N[C@@H](CCN)C(=O)N[C@H]1CCNC(=O)[C@H](Cn2cc(CC(=O)O)nn2)NC(=O)[C@H](CCN)NC(=O)[C@H](CCN)NC(=O)[C@H](CC(C)C)NC(=O)[C@@H](Cc2ccccc2)NC(=O)[C@H](Cc2ccc(O)cc2)NC1=O)[C@@H](C)O [monomer 9] | – | > 50 | > 50 | > 50 | > 50 | – | – |
| CCC(CC)COC(=O)[C@H](C)N[P@](=O)(OC[C@H]1O[C@@](C#N)(c2ccc3c(N)ncnn23)[C@H](O)[C@@H]1O)Oc1ccccc1 [remdesivir, reference compound] | – | – | 43 | – | – | – | 0.0044 |
